The text below walks through data of a melting point compilation (Tetko et al.; mined from patent text by program, amines drawn as free bases though some values may be those of a salt).

One may read the melting point as the temperature, or range, at which the solid turns liquid.

Each structure is given as a SMILES string.

`CC(=O)N1CCC1CC(=O)O` (stereo not given): the melting point fell in the range of 148 to 150 °C.
The result for `NC[C@H]1CCc2[nH]c3ccc(F)cc3c2C1` reads 121 to 123 °C.
Molecule `Cc1c(NC(=O)CC(C)(C)C)c(C)c2c(c1-c1ccncc1)OCC2c1ccc(C(C)C)cc1` (stereo not given) gave a melting point of 150 to 152 °C.
The result for `CCc1nc2c(O)c(CN(C)C)c(C(=O)N(C)C)cc2n1C` reads 183 to 185 °C.
`Cc1nc(-c2ccccc2)nc(-c2cccc([N+](=O)[O-])c2)c1C(=O)OCCO` returned a melting point of 84 to 86 °C.
`CCc1ccccc1NC=C1C(=O)N(c2cccc(C#N)c2)N=C1C` yielded a melting point of 211 °C.
Molecule `CCCCCCCCCCCCCCCCCCOC1=CC(OCCCOc2ccc(C(C)(C)C)cc2)(N(CC(=O)O)CC(=O)O)CC=C1` (stereo not given) showed a melting point of 99 to 101 °C.
For `COC(=O)c1cccc2[nH]c(-c3ccc(Cl)cc3)c(C=O)c12`, the melting point lay in the range of 221 to 222 °C.
In turn, `Cc1cc(=O)[nH]nc1-c1ccccc1` came in with a melting point of 125 to 126 °C.
The result for `CC(=O)OCC1CC(Nc2cc(Cl)c(Cl)cc2[N+](=O)[O-])C(OC(C)=O)C1OC(C)=O` (stereo not given) reads 128 to 130 °C; that for `CC12CC3CC(C)(C1)CC(C(=O)NCCc1cccs1)(C3)C2`, 131 to 132 °C; that for `CC(=NO)c1ccc(N2CCN(C(=O)CCCCCCC(=O)NO)CC2)cc1`, 147 to 148 °C.
Take `CC(C)(C)c1noc(-c2cccc(Cl)n2)n1`: the melting point was in the range of 103 to 104 °C.
The result for `Nc1nsc2nc3ccccc3n12` reads 255 to 256 °C; that for `c1ccc(-c2nn3c(c2-c2ccnc4cc(OCCN5CCOCC5)ccc24)CCCCC3)nc1`, 157 to 159 °C.
For the molecule `CC(C)(C)c1ccc(O)c(S(=O)(=O)CCl)c1`, the melting point lay within 94 to 95 °C.
Consider `O=C(O)Cc1cc(OCc2ccccc2)ccc1OCc1ccccc1`, for which the melting point lay in the range of 95.5 to 100 °C.
In the case of `CC(C)(C)OC(=O)Cn1c(C(=O)O)cc2ccccc21`, the melting point was in the range of 156 to 157 °C.
With `N#CCNCNCC#N`, the melting point fell in the range of 83 to 85 °C.
With `Cc1c(CO)c2cnnc(OCc3ccccc3)c2n1Cc1ccccc1`, the melting point lay in the range of 130 to 132 °C.
`COc1cc(Nc2cc(-c3ccc(F)cc3)nc3ccccc23)ccc1Cl` registered a melting point of 274 to 276 °C.
As for `CN1CCC(C2Oc3cc(F)ccc3Cn3cccc32)CC1` (stereo not given), the melting point lay within 115 to 120 °C.
`Nc1c(N=Nc2ccc(Cl)cc2)ccc2c(S(N)(=O)=O)cccc12`: the melting point amounted to 258 °C.
For `Fc1ccccc1-c1nc2cccnc2s1`, the melting point was in the range of 119 to 121 °C.
On to `C#CCCCCOc1ccc(/C=C/C(=O)Nc2ccccc2C(=O)O)cc1OC`, for which the melting point is 148 to 150 °C.
The result for `COC(=O)C(C(=O)c1ccc(Cc2cn(C)c3ccc(NC(=O)OC4CCCC4)cc23)c(OC)c1)S(=O)(=O)c1ccccc1` (stereo not given) reads 65 to 70 °C; that for `N#Cc1sc(N2CCCC2)nc1N`, 305 to 308 °C; that for `CCCCCCCCNC(=O)C(C)=Cc1cccc(N2CC(C(=O)O)CC2=O)c1` (stereo not given), 120 to 121 °C.
In the case of `CCOC(=O)c1cnn(CC(O)c2ccccc2)c1NC(=S)NC(=O)c1ccccc1` (stereo not given) it was 171 to 172 °C; in that of `Nc1nc(N2CCOCC2)c2ncn(C3C=CC(CO)C3)c2n1` (stereo not given), 165 to 167 °C; in that of `CC(C)(c1ccc(OS(=O)(=O)c2ccccc2)cc1)c1ccc(OS(=O)(=O)c2ccccc2)cc1`, 92 to 93 °C.
In the case of `CN1CCN(C2CCC(Nc3ncc4ncnc(Nc5ccc(F)c(Cl)c5)c4n3)CC2)CC1` (stereo not given) it was 194 to 196 °C; in that of `C[C@@H]1S[C@@H](C(=O)Nc2ccc(Cn3oc(=O)[nH]c3=O)cc2)Cc2cc3c(cc2C1=O)OCO3`, 237 to 239 °C; in that of `COc1cccc(S(=O)(=O)N2CCc3cc(OCc4ccccc4)c(OC)cc3C2=O)c1`, 140 to 145 °C.
As for `CCOC(=O)C(=O)/C=C/c1ccc(OCCc2nc(-c3ccccc3)oc2C)cc1`, the melting point lay within 99 to 100 °C.
